Measurements from US9434719B2, “3-pyrimidin-4-yl-oxazolidin-2-ones as inhibitors of mutant IDH” (NOVARTIS AG, priority 2013, dated 2016).
Structures can show the parent of a compound that is named as a salt.

Key:
Type in all cases: in vitro ADME
[1] = Metabolic stability in liver microsomes, Method II, rat; conditions: 1 μM test compound, NADPH + UDPGA
Experimental: The in vitro metabolic stability assay was performed in a 96-deep-well plate with incubation at 37° C. 10 mM DMSO stock solution of the test compound was diluted 1:20 in acetonitrile, followed by an additional 1:10 dilution in 100 mM potassium phosphate buffer (KPi) to yield a final reaction concentration of 1 μM. […] 290 μL of cofactor solution (1.7 mM NADPH, 1.7 mM UDPGA, 3.4 mM MgCl in 100 mM KPi) was added to 200 μL of microsomal protein for a final volume of 490 μL. The reaction was initiated by adding 10 μL of the 50 μM test solution to 490 μL of microsomal protein for a final volume 500 μL enzyme-compound mixture.
UPLC mobile phase A: 0.25% formic acid in 5% methanol; mobile phase B: 0.25% formic acid in 95% water.

[2] = Metabolic stability in liver microsomes, Method II, mouse; conditions: NADPH + UDPGA; for microsomal CLint: 1 μM test compound
Experimental: (§1) Determination of Metabolic Stability in Liver Microsomes—Method II
(§2) The in vitro metabolic stability assay was performed in a 96-deep-well plate with incubation at 37° C. 10 mM DMSO stock solution of the test compound was diluted 1:20 in acetonitrile, followed by an additional 1:10 dilution in 100 mM potassium phosphate buffer (KPi) to yield a final reaction concentration of 1 μM. Immediately prior to the start of the experiment, respective animal or human liver microsomes (male Sprague-dawley rat, male CD-1 mouse, or pooled human liver microsomes) were diluted in 100 mM KPi to 1.25 mg/mL liver microsomal protein. 290 μL of cofactor solution (1.7 mM NADPH, 1.7 mM UDPGA, 3.4 mM MgCl in 100 mM KPi) was added to 200 μL of microsomal protein for a final volume of 490 μL. The reaction was initiated by adding 10 μL of the 50 μM test solution to 490 μL of microsomal protein for a final volume 500 μL enzyme-compound mixture.
(§3) At 0, 5, 15 and 30 minute time points in the reaction, reaction aliquots (75 μL) were removed and the reactions were terminated by the addition of 50:50 acetonitrile/methanol solution (75 μL) containing a mass spectrometry internal standard (0.5 μM glyburide). The samples were centrifuged at 4000 RPM for 10 minutes. Supernatants (15 μL aliquots) were transferred to a new plate where each well contains 90 μL of deionized water. The supernatants solution were analyzed by UPLC/MS/MS for quantitation of parent remaining compound under multiple reactions monitoring mode (MRM) in positive mode. The percentage of compound remaining, relative to 0 minutes, was used to estimate in vitro elimination-rate constant (k) which was used to calculate in vitro metabolic clearance rates.
(§4) Analysis of the samples was performed on an ultra-performance liquid chromatography-tandem mass spectrometry (UPLC/MS/MS) system consisting of an AB Sciex Qtrap 5500 mass spectrometer, AB Sciex Turbo V ion source, Waters Acquity Sample Organizer, Waters Acquity Column manager, Waters Acquity Sample manager, and a Waters Acquity Binary Solvent Manager. Chromatographic separation of analyte and internal standard was achieved using a reverse phase C-18 column (50×2.1 mm, 1.7 μm, Acquity UPLC BEH C-18) with the following UPLC mobile phases and elution gradient: […]
(§5) UPLC mobile phase A: 0.25% formic acid in 5% methanol; mobile phase B: 0.25% formic acid in […].
(§6) The injection volume was 5 μL. Compounds were detected using Analyst 1.5.1 software which collects intensity data for all fragments related to the molecular weight of the test compound. After collection of the raw data, the software identifies and integrates the peak of the strongest intensity.
(§7) Each microsomal elimination rate, k, was based on a 4-point elimination curve tested in duplicates. LC-MS/MS raw data for a reaction plate was returned as integrated analyte peak areas for the test compound and internal standard used in the quench solution for the reaction to enable use of analyte:internal standard peak area ratios (PARs) for all data comparisons. The reaction time point (e.g. 0, 5, 15 and 30 minutes) was plotted versus the natural logarithm of percent test compound remaining relative to 0 minutes (based on relative PAR). The slope of this clearance plot, k, was used to calculate the in vitro half-life.
(§8) [formula] The intrinsic clearance value, CLint (expressed as μL/min/mg microsomal protein) calculation is shown below:
(§9) [formula] Where V=the incubation volume (mL) and M=the microsomal protein content in the incubation (mg)

[3] = Metabolic stability in liver microsomes, Method II, human; conditions: 1 μM test compound, NADPH + UDPGA
Experimental: as §1, §2, §3, §4, §5, §6, §7, §8, §9

Row | SMILES | microsomal CLint [1] [µL/min/mg] | microsomal CLint [2] [µL/min/mg] | microsomal CLint [3] [µL/min/mg] | microsomal CLint at 1 μM ([1]; male, Sprague-Dawley) [µL/min/mg] | microsomal CLint at 1 μM ([2]; male, CD-1, 1 μM test compound) [µL/min/mg] | microsomal CLint at 1 μM ([3]; pooled liver microsomes) [µL/min/mg]
1 | C[C@H](Nc1nccc(N2C(=O)OC[C@@H]2CF)n1)c1cn(-c2ccc(F)cc2)cn1 [471 as TFA salt] | < 7.7 | 14.8 | < 7.7 | – | – | –
2 | C[C@H](Nc1ncc(F)c(N2C(=O)OC[C@@H]2CF)n1)c1cn(-c2ccc(F)c(Cl)c2)cn1 [472 as TFA salt] | 12 | 45.6 | < 7.7 | – | – | –
3 | C[C@H](Nc1nccc(N2C(=O)OC[C@@H]2CF)n1)c1cn(-c2ccc(F)c(F)c2)cn1 [474 as TFA salt] | 24.8 | < 7.7 | < 7.7 | – | – | –
4 | C[C@H](Nc1ncc(F)c(N2C(=O)OC[C@@H]2[C@H](C)F)n1)c1cn(-c2ccc(F)cc2F)cn1 [479 as TFA salt] | 173 | 116 | 11.9 | – | – | –
5 | C[C@H](Nc1ncc(F)c(N2C(=O)OC[C@@H]2[C@H](C)F)n1)c1cn(-c2ccc(Cl)cc2F)cn1 [Example 477, (R)-3-(2-(((S)-1-(1-(4-chloro-2-fluorophenyl)-1H-imidazol-4-yl)ethyl)amino)-5-fluoropyrimidin-4-yl)-4-((S)-1-fluoroethyl)oxazolidin-2-one] | – | – | – | 438 | 167 | 30.4

Further lines, results first:

Row | microsomal CLint [1] [µL/min/mg] | microsomal CLint [2] [µL/min/mg] | microsomal CLint [3] [µL/min/mg] | microsomal CLint at 1 μM ([1]; male, Sprague-Dawley) [µL/min/mg] | microsomal CLint at 1 μM ([2]; male, CD-1, 1 μM test compound) [µL/min/mg] | microsomal CLint at 1 μM ([3]; pooled liver microsomes) [µL/min/mg] | SMILES
6 | 344 | 111 | 41.4 | – | – | – | C[C@H](Nc1nccc(N2C(=O)OC[C@@H]2[C@H](C)F)n1)c1cn(-c2ccc(Cl)cc2F)cn1 [476 as TFA salt]
7 | 219 | 55.3 | 10.9 | – | – | – | C[C@H](Nc1nccc(N2C(=O)OC[C@@H]2[C@H](C)F)n1)c1cn(-c2ccc(F)cc2F)cn1 [478 as TFA salt]
